Source: the NIST ThermoML archive (doi:10.1016/j.jct.2015.10.001)
± gives the expanded uncertainty stated by the source.

Test: mn = molality of the nth substance listed, in mol/kg
Settings: 100 kPa, Liquid; for viscosity: Capillary tube (Ostwald / Ubbelohde) method; for electrical conductivity: Direct current cell with electrodes; for mass density: Vibrating tube method

## CCCCn1cc[n+](C)c1.O=C([O-])c1ccccc1O [1-butyl-3-methylimidazolium salicylate] + O
293.15 K, m1 = 0.0058
  viscosity: 1.031 ± 0.021 mPa·s
293.15 K, m1 = 0.0071
  viscosity: 1.035 ± 0.022 mPa·s
293.15 K, m1 = 0.0117
  viscosity: 1.046 ± 0.022 mPa·s
293.15 K, m1 = 0.0205
  viscosity: 1.065 ± 0.022 mPa·s
293.15 K, m1 = 0.0353
  viscosity: 1.091 ± 0.023 mPa·s
293.15 K, m1 = 0.0384
  viscosity: 1.096 ± 0.023 mPa·s
293.15 K, m1 = 0.0552
  viscosity: 1.123 ± 0.023 mPa·s
293.15 K, m1 = 0.0765
  viscosity: 1.155 ± 0.024 mPa·s
293.15 K, m1 = 0.001
  electrical conductivity: 0.007 ± 0.0012 S/m
293.15 K, m1 = 0.0037
  electrical conductivity: 0.0231 ± 0.0013 S/m
293.15 K, m1 = 0.0062
  electrical conductivity: 0.0356 ± 0.0014 S/m
293.15 K, m1 = 0.0072
  electrical conductivity: 0.0399 ± 0.0015 S/m
293.15 K, m1 = 0.008
  electrical conductivity: 0.0439 ± 0.0016 S/m
293.15 K, m1 = 0.01
  electrical conductivity: 0.0517 ± 0.0017 S/m
293.15 K, m1 = 0.0144
  electrical conductivity: 0.0674 ± 0.0021 S/m
293.15 K, m1 = 0.0221
  electrical conductivity: 0.0901 ± 0.0028 S/m
293.15 K, m1 = 0.00579
  mass density: 998.44 ± 1.6 kg/m3
293.15 K, m1 = 0.007
  mass density: 998.49 ± 1.6 kg/m3
293.15 K, m1 = 0.00801
  mass density: 998.53 ± 1.6 kg/m3
293.15 K, m1 = 0.01056
  mass density: 998.64 ± 1.6 kg/m3
293.15 K, m1 = 0.01278
  mass density: 998.73 ± 1.6 kg/m3
293.15 K, m1 = 0.0158
  mass density: 998.86 ± 1.6 kg/m3
293.15 K, m1 = 0.01707
  mass density: 998.92 ± 1.6 kg/m3
293.15 K, m1 = 0.02056
  mass density: 999.07 ± 1.6 kg/m3
293.15 K, m1 = 0.02523
  mass density: 999.27 ± 1.6 kg/m3
298.15 K, m1 = 0.0058
  viscosity: 0.925 ± 0.019 mPa·s
298.15 K, m1 = 0.0071
  viscosity: 0.93 ± 0.019 mPa·s
298.15 K, m1 = 0.0117
  viscosity: 0.943 ± 0.02 mPa·s
298.15 K, m1 = 0.0205
  viscosity: 0.964 ± 0.02 mPa·s
298.15 K, m1 = 0.0353
  viscosity: 0.993 ± 0.021 mPa·s
298.15 K, m1 = 0.0384
  viscosity: 0.998 ± 0.021 mPa·s
298.15 K, m1 = 0.0552
  viscosity: 1.026 ± 0.021 mPa·s
298.15 K, m1 = 0.0765
  viscosity: 1.058 ± 0.022 mPa·s
298.15 K, m1 = 0.001
  electrical conductivity: 0.0079 ± 0.0014 S/m
298.15 K, m1 = 0.0037
  electrical conductivity: 0.0262 ± 0.0015 S/m
298.15 K, m1 = 0.0062
  electrical conductivity: 0.0404 ± 0.0016 S/m
298.15 K, m1 = 0.0072
  electrical conductivity: 0.0452 ± 0.0017 S/m
298.15 K, m1 = 0.008
  electrical conductivity: 0.0498 ± 0.0018 S/m
298.15 K, m1 = 0.01
  electrical conductivity: 0.0588 ± 0.002 S/m
298.15 K, m1 = 0.0144
  electrical conductivity: 0.0771 ± 0.0024 S/m
298.15 K, m1 = 0.0221
  electrical conductivity: 0.103 ± 0.0032 S/m
298.15 K, m1 = 0.00579
  mass density: 997.28 ± 1.6 kg/m3
298.15 K, m1 = 0.007
  mass density: 997.33 ± 1.6 kg/m3
298.15 K, m1 = 0.00801
  mass density: 997.37 ± 1.6 kg/m3
298.15 K, m1 = 0.01056
  mass density: 997.48 ± 1.6 kg/m3
298.15 K, m1 = 0.01278
  mass density: 997.57 ± 1.6 kg/m3
298.15 K, m1 = 0.0158
  mass density: 997.7 ± 1.6 kg/m3
298.15 K, m1 = 0.01707
  mass density: 997.75 ± 1.6 kg/m3
298.15 K, m1 = 0.02056
  mass density: 997.9 ± 1.6 kg/m3
298.15 K, m1 = 0.02523
  mass density: 998.11 ± 1.6 kg/m3
303.15 K, m1 = 0.0058
  viscosity: 0.838 ± 0.017 mPa·s
303.15 K, m1 = 0.0071
  viscosity: 0.842 ± 0.018 mPa·s
303.15 K, m1 = 0.0117
  viscosity: 0.857 ± 0.018 mPa·s
303.15 K, m1 = 0.0205
  viscosity: 0.879 ± 0.018 mPa·s
303.15 K, m1 = 0.0353
  viscosity: 0.911 ± 0.019 mPa·s
303.15 K, m1 = 0.0384
  viscosity: 0.917 ± 0.019 mPa·s
303.15 K, m1 = 0.0552
  viscosity: 0.945 ± 0.02 mPa·s
303.15 K, m1 = 0.0765
  viscosity: 0.979 ± 0.02 mPa·s
303.15 K, m1 = 0.001
  electrical conductivity: 0.0089 ± 0.0016 S/m
303.15 K, m1 = 0.0037
  electrical conductivity: 0.0297 ± 0.0017 S/m
303.15 K, m1 = 0.0062
  electrical conductivity: 0.0454 ± 0.0018 S/m
303.15 K, m1 = 0.0072
  electrical conductivity: 0.0507 ± 0.0019 S/m
